Where two headings read alike, the source gives them in different places.
Legend:
[1] = biological target: T1, human full-length glucocorticoid receptor (Homo sapiens, UniProt P04150); assay: Glucocorticoid Receptor Binding Assay (II), fluorescence polarization competitor kit (Fluormone GS1); conditions: cell lysate with recombinant human full-length GR, 1 nM Fluormone GS1, FP
T1 construct: a cell lysate containing recombinantly expressed human full-length glucocorticoid receptor; purchased PanVera Co., Madison, Wis; P2816
T1 sequence (P04150 1-777): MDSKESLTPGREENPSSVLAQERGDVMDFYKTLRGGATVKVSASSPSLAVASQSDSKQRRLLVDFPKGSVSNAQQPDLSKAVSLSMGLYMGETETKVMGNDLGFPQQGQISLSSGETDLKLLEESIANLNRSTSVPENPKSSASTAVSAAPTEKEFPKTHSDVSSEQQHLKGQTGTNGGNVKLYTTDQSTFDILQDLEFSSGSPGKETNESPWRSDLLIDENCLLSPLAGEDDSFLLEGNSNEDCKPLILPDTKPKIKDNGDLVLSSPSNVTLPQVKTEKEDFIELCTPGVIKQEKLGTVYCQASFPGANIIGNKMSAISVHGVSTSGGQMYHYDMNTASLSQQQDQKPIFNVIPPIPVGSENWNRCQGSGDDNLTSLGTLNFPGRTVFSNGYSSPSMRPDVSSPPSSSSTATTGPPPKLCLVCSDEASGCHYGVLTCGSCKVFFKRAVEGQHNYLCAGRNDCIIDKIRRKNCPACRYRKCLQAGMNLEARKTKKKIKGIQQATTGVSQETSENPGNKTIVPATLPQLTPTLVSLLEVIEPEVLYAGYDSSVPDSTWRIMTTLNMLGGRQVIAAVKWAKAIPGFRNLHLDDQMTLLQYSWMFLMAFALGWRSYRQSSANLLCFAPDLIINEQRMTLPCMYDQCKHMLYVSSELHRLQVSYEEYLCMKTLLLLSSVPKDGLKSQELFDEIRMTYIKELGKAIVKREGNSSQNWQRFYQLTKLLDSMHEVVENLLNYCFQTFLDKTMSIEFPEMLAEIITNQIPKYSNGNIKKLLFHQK
Description: In order to measure the binding of compounds on the glucocorticoid receptor a commercially available kit was used (Glucocorticoid receptor competitor assay kit, PanVera Co., Madison, Wis., P2816). Briefly, a cell lysate containing recombinantly expressed human full-length glucocorticoid receptor was mixed with a fluorescently labeled glucocorticoid (1 nM Fluormone GS1) in the presence or absence of test compound. After one hour at room temperature, the fluorescence polarization (FP) of the samples were measured.

[2] = tested on: AP-1 induced transcriptional activity; assay: Cellular Transrepressional Assay (AP-1 luciferase reporter in A549 cells, PMA-activated); format: cell-based; conditions: A549 cells with 7x AP-1 luciferase reporter, 10 ng/ml PMA, read-out: AP-1 (EC50, nM) (Cellular Transrepression Assay)
Method in brief: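 Stable A549 AP-1 (7× sites) luciferase reporter line stimulated with 10 ng/ml PMA plus test molecules (0.1 nM to 40 μM) for 7 h. Luminescence read after 10 min with luciferase reagent; EC50 from % decrease of PMA-induced signal.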

SMILES	Ki [1] [nM]	EC50 ([2]; Homo sapiens, A549, 7 h) [nM]	EC50 ([2]; 7 hours) [nM]
CC(C)(C(=O)NC1CCCC1)C(Cc1ccccc1)c1ccc2c(cnn2-c2ccc(F)cc2)c1 (single isomer, unassigned) [Example 130, N-cyclopentyl-3-(1-(4-fluorophenyl)-1H-indazol-5-yl)-2,2-dimethyl-4-phenylbutanamide]	6.1	> 10000	
CC(C)(C(=O)NC1CCCC1)C(Cc1ccccc1)c1ccc2c(cnn2-c2ccc(F)cc2)c1 (single isomer, unassigned) [Example 131, N-cyclopentyl-3-(1-(4-fluorophenyl)-1H-indazol-5-yl)-2,2-dimethyl-4-phenylbutanamide]	3		> 10000
O=C(Nc1nncs1)C(c1ccccc1)C(c1ccccc1)c1ccc2c(cnn2-c2ccc(F)cc2)c1 (single isomer, unassigned) [Example 145-isomerA, 3-(1-(4-fluorophenyl)-1H-indazol-5-yl)-2,3-diphenyl-N-(1,3,4-thiadiazol-2-yl)propanamide]	18		5000
O=C(Nc1nncs1)C(c1ccccc1)C(c1ccccc1)c1ccc2c(cnn2-c2ccc(F)cc2)c1 (single isomer, unassigned) [Example 145-isomerC, 3-(1-(4-fluorophenyl)-1H-indazol-5-yl)-2,3-diphenyl-N-(1,3,4-thiadiazol-2-yl)propanamide]	555		5000
O=C(Nc1nncs1)C(c1ccccc1)C(c1ccccc1)c1ccc2c(cnn2-c2ccc(F)cc2)c1 (single isomer, unassigned) [Example 145-isomerD, 3-(1-(4-fluorophenyl)-1H-indazol-5-yl)-2,3-diphenyl-N-(1,3,4-thiadiazol-2-yl)propanamide]	2.4		45
CCOC(=O)c1cccc(-n2ncc3cc([C@H](c4ccccc4)C(C)(C)C(=O)Nc4nncs4)ccc32)c1 (stereo in doubt) [Example 95, ethyl 3-(5-(3-(1,3,4-thiadiazol-2-ylamino)-2,2-dimethyl-3-oxo-1-phenylpropyl)-1H-indazol-1-yl)benzoate]	496	> 10000	
Cc1cccc(C(c2ccc3c(cnn3-c3ccc(F)cc3)c2)C(C)(C)C(=O)Nc2nccs2)c1 (stereo not shown) [Example 41, 3-(1-(4-fluorophenyl)-1H-indazol-5-yl)-2,2-dimethyl-N-(thiazol-2-yl)-3-m-tolylpropanamide]	2.3	2.6	
Cc1ccc(C(c2ccc3c(cnn3-c3ccc(F)cc3)c2)C(C)(C)C(=O)Nc2nccs2)cc1 (stereo not shown) [Example 42, 3-(1-(4-fluorophenyl)-1H-indazol-5-yl)-2,2-dimethyl-N-(thiazol-2-yl)-3-p-tolylpropanamide]	1.9	3.9	
CC(C)(C(=O)Nc1nccs1)C(c1cccc(F)c1)c1ccc2c(cnn2-c2ccc(F)cc2)c1 (stereo not shown) [Example 43]	2.9	2.4	
CC(C)(C(=O)Nc1nccs1)C(c1ccc(F)cc1)c1ccc2c(cnn2-c2ccc(F)cc2)c1 (stereo not shown) [Example 44, 3-(4-fluorophenyl)-3-(1-(4-fluorophenyl)-1H-indazol-5-yl)-2,2-dimethyl-N-(thiazol-2-yl)propanamide]	2.4	14	
C=CCC(c1ccc2c(cnn2-c2ccc(F)cc2)c1)C(C)(C)C(=O)Nc1nncs1 (stereo not shown) [Example 45, 3-(1-(4-fluorophenyl)-1H-indazol-5-yl)-2,2-dimethyl-N-(1,3,4-thiadazol-2-yl)hex-5-enamide]	2.6	52	
CC(C)(C(=O)Nc1nncs1)C(c1ccc2c(cnn2-c2ccc(F)cc2)c1)C1CC1 (stereo not shown) [Example 47, 3-cyclopropyl-3-(1-(4-fluorophenyl)-1H-indazol-5-yl)-2,2-dimethyl-N-(1,3,4-thiadiazol-2-yl)propanamide]	1.7	523	
CC(C)C(c1ccc2c(cnn2-c2ccc(F)cc2)c1)C(C)(C)C(=O)Nc1nncs1 (stereo not shown) [Example 48, 3-(1-(4-fluorophenyl)-1H-indazol-5-yl)-2,2,4-trimethyl-N-(1,3,4-thiadiazol-2-yl)pentanamide]	2.4	81	
Cc1ccc(C(c2ccc3c(cnn3-c3ccc(F)cc3)c2)C(C)(C)C(=O)Nc2nncs2)cc1 (stereo not shown) [Example 51, 3-(1-(4-fluorophenyl)-1H-indazol-5-yl)-2,2-dimethyl-N-(1,3,4-thiadiazol-2-yl)-3-p-tolylpropanamide]	1.8	3.9	
CC(C)(C(=O)Nc1nncs1)C(c1ccc(F)cc1)c1ccc2c(cnn2-c2ccc(F)cc2)c1 (stereo not shown) [Example 53, 3-(4-fluorophenyl)-3-(1-(4-fluorophenyl)-1H-indazol-5-yl)-2,2-dimethyl-N-(1,3,4-thiadiazol-2-yl)propanamide]	1.9	13	
COC(=O)c1ccc(-n2ncc3cc(C(c4ccccc4)C(C)(C)C(=O)Nc4nncs4)ccc32)cc1 (stereo not shown) [Example 88, methyl 4-(5-(3-(1,3,4-thiadiazol-2-ylamino)-2,2-dimethyl-3-oxo-1-phenylpropyl)-1H-indazol-1-yl)benzoate]	26	> 10000	
CC(C)(C(=O)Nc1nncs1)C(c1ccccc1)c1ccc2c(cnn2-c2ccc(C(=O)O)cc2)c1 (stereo not shown) [Example 89, 4-(5-(3-(1,3,4-thiadiazol-2-ylamino)-2,2-dimethyl-3-oxo-1-phenylpropyl)-1H-indazol-1-yl)benzoic acid]	27	> 10000	
COc1cccc(-n2ncc3cc(C(c4ccccc4)C(C)(C)C(=O)Nc4nncs4)ccc32)c1 (stereo not shown) [Example 94, 3-(1-(3-methoxyphenyl)-1H-indazol-5-yl)-2,2-dimethyl-3-phenyl-N-(1,3,4-thiadiazol-2-yl)propanamide]	36	1200	

Other lines, results leading:

Ki [1] [nM]	EC50 ([2]; Homo sapiens, A549, 7 h) [nM]	EC50 ([2]; 7 hours) [nM]	SMILES
1.1		5	O=C(Nc1nncs1)C(c1ccccc1)C(c1ccccc1)c1ccc2c(cnn2-c2ccc(F)cc2)c1 (single isomer, unassigned) [Example 145-isomerB, 3-(1-(4-fluorophenyl)-1H-indazol-5-yl)-2,3-diphenyl-N-(1,3,4-thiadiazol-2-yl)propanamide]
1.6	2.1		Cc1ccccc1C(c1ccc2c(cnn2-c2ccc(F)cc2)c1)C(C)(C)C(=O)Nc1nccs1 (stereo not shown) [Example 40, 3-(1-(4-fluorophenyl)-1H-indazol-5-yl)-2,2-dimethyl-N-(thiazol-2-yl)-3-o-tolylpropanamide]
1.7	18		CCCC(c1ccc2c(cnn2-c2ccc(F)cc2)c1)C(C)(C)C(=O)Nc1nncs1 (stereo not shown) [Example 46, 3-(1-(4-fluorophenyl)-1H-indazol-5-yl)-2,2-dimethyl-N-(1,3,4-thiadazol-2-yl)hexanamide]
1.1	4.2		Cc1ccccc1C(c1ccc2c(cnn2-c2ccc(F)cc2)c1)C(C)(C)C(=O)Nc1nncs1 (stereo not shown) [Example 49, 3-(1-(4-fluorophenyl)-1H-indazol-5-yl)-2,2-dimethyl-N-(1,3,4-thiadiazol-2-yl)-3-o-tolylpropanamide]
0.92	9.7		Cc1cccc(C(c2ccc3c(cnn3-c3ccc(F)cc3)c2)C(C)(C)C(=O)Nc2nncs2)c1 (stereo not shown) [Example 50, 3-(1-(4-fluorophenyl)-1H-indazol-5-yl)-2,2-dimethyl-N-(1,3,4-thiadiazol-2-yl)-3-m-tolylpropanamide]
1.3	8.1		CC(C)(C(=O)Nc1nncs1)C(c1cccc(F)c1)c1ccc2c(cnn2-c2ccc(F)cc2)c1 (stereo not shown) [Example 52, 3-(3-fluorophenyl)-3-(1-(4-fluorophenyl)-1H-indazol-5-yl)-2,2-dimethyl-N-(1,3,4-thiadiazol-2-yl)propanamide]
1.3	2500		C/C=C/CC(c1ccc2c(cnn2-c2ccc(F)cc2)c1)C(C)(C)C(=O)Nc1nncs1 (stereo not shown) [Example 55, (E)-3-(1-(4-fluorophenyl)-1H-indazol-5-yl)-2,2-dimethyl-N-(1,3,4-thiadiazol-2-yl)hept-5-enamide]
1.3	4		CC(C)=CC(c1ccc2c(cnn2-c2ccc(F)cc2)c1)C(C)(C)C(=O)Nc1nncs1 (stereo not shown) [Example 56, 3-(1-(4-fluorophenyl)-1H-indazol-5-yl)-2,2,5-trimethyl-N-(1,3,4-thiadiazol-2-yl)hex-4-enamide]
